One assay has as its system 129 mES cells. Briefly: Dependence of pluripotency on signaling pathways, 129 mES. The conditions noted are these: mESM, Day 6. The class given is cell-based, mouse. Here is the method: (§1) FIG. 21 illustrates the dependence of pluripotency states on distinct signaling pathways. 129 mES or EpiSC cell samples were equally divided and plated on irradiated MEFs in the indicated growth conditions (mESM or epiESM) in which these cell lines are normally maintained, and 24 hours later the wells were supplemented with either JAKi or ALKi or were kept without any inhibitor. Representative images at Day 6 of the experiment are shown. EpiSC cells as previously described, differentiated upon introduction of ALK inhibitors, while mES cells differentiate upon blocking of Stat3 signaling by the JAK inhibitor.

For another assay, the system named is naive-hESCs/hiPSCs. Nature of the assay: Signaling dependence of pluripotent cell lines, naive-hESC/hiPSC. The class given is cell-based, human. The conditions noted are these: grown in PD/CH/FK/LIF, inhibitor or factor added. On the procedure:
(§2) Pluripotent cells were equally divided and plated on feeders in the indicated growth medium in which these cell lines are normally maintained, and 36 hours later the wells were supplemented with the indicated inhibitors or growth factors. After seven days, wells were fixed and stained to determine the relative percentage of colonies positive for pluripotency markers. SSEA1 staining was used for mouse stem cells. Colony formation was normalized to an internal control “Growth medium” without inhibitors (first left column). Normalized percentages lower than 5% are defined as “sensitivity” to the presence of the supplemented inhibitor. (B-C) Western blot analysis of total ERK1/2, phosphorylated ERK1/2 (pERK1/2) and phosphorylated Stat3 (pStat3). WIBR3 hESC and C1 hiPSC were grown in traditional bFGF/Activin containing media while naive-hESC/hiPSCs were grown in N2B27 PD/CH/FOR/LIF. ‘2×LIF’ indicates two fold increase in LIF concentration. (D) LIF/Stat3 is required for stabilization of naive-hESC/hiPSCs. Naïve NOD mESCs, WIBR3.5 and WIBR3.1 naive-hESC, and C1 naïve-hiPSCs were electroporated with a pBRY-CAGGS-flox-DsRedT4-IP control plasmid, a plasmid encoding a dominant negative Stat3 Y705F mutant (Stat3-DN), or a plasmid Stat3-C constitutively active mutant (pBRY-Stat3-CA). Cells were passaged three times in the presence of puromycin. After 20 days, colonies positive for pluripotency markers were counted and normalized to colonies from cells electroporated with empty vector (n=3 replicates for each condition). (E) RT-PCR expression of early germ cell markers in the presence or absence of BMP4/7/8 cytokines for 7 days. (F) Representative FISH analysis for XIST RNA (red) and Cot1 nuclear RNA (green). Pri-WIBR3.2 cell line was analyzed after passaging in conventional bFGF/serum-containing human ESC growth conditions. Numbers indicate average percentage of XIST positive nuclei counted.
(§3) Small molecules and cytokines were purchased from Tocris, Calbiochem or Sigma, and were supplemented as indicated at the following final concentration: JAK inhibitor (JAKi, 6 μM), Kenpaullone (KP, 5 μM), PD0325901 (PD, 1 μM); CHIR99021 (CH, […]), Forskolin (FK, 10 μM), FGF4-Receptor inhibitors PD173074 (0.1 μM) and SU5401 (2 μM); TGFβ/ALK inhibitors A83-01 (1 μM), RepSox (1 μM), ALK inhibitor (ALKi—SB431542, 2 μM); AICAR (0.5 mM); BixO1294 (1 μM); BayK8644 (1 μM); recombinant human BMP4 (10 ng/ml), recombinant human IL-6 (10 ng/ml), recombinant human TGFβ (500 ng/ml), Media with inhibitors was routinely replaced every 48 hours to sustain activity of compounds.

In another assay the test system is hESCs. Briefly: Signaling dependence of pluripotent cell lines, conventional hESCs. The class given is cell-based, human. The conditions noted are these: normal growth medium, inhibitor or factor added. Here is the method:
Pluripotent cells were equally divided and plated on feeders in the indicated growth medium in which these cell lines are normally maintained, and 36 hours later the wells were supplemented with the indicated inhibitors or growth factors. After seven days, wells were fixed and stained to determine the relative percentage of colonies positive for pluripotency markers. SSEA1 staining was used for mouse stem cells. Colony formation was normalized to an internal control “Growth medium” without inhibitors (first left column). […] (B-C) Western blot analysis of total ERK1/2, phosphorylated ERK1/2 (pERK1/2) and phosphorylated Stat3 (pStat3). WIBR3 hESC and C1 hiPSC were grown in traditional bFGF/Activin containing media while naive-hESC/hiPSCs were grown in N2B27 PD/CH/FOR/LIF. ‘2×LIF’ indicates two fold increase in LIF concentration. […] Cells were passaged three times in the presence of puromycin. […] (E) RT-PCR expression of early germ cell markers in the presence or absence of BMP4/7/8 cytokines for 7 days. (F) Representative FISH analysis for XIST RNA (red) and Cot1 nuclear RNA (green). Pri-WIBR3.2 cell line was analyzed after passaging in conventional bFGF/serum-containing human ESC growth conditions.

For assay [1], the system named is naive human pluripotent stem cells. Nature of the assay: Long-term propagation of naive human pluripotent stem cells. The class given is cell-based. The conditions noted are these: genetically unmodified forskolin-dependent naive cells. On the procedure:
Naïve human pluripotent cells were grown in serum-free N2B27 based media. 500 ml of media was generated by including: 240 ml of DMEM/F12 (Invitrogen #11320), 240 ml of Neurobasal media (Invitrogen #21103), 5 ml of N2 supplement (Invitrogen #17502048), 10 ml B27 supplement (17504044), 10 μg of recombinant human LIF (Millipore, LIF1005), 1 mM glutamine (Invitrogen), 1% nonessential amino acids (Invitrogen), 0.1 mM β-mercaptoethanol (Sigma), pen/strep (Invitrogen), 5 mg/ml bovine serum albumin (Sigma) and small molecule inhibitors as indicated. Naïve-hESCs/hiPSCs were kept on mitomycin C (MMC)-inactivated mouse embryonic fibroblast (MEF) feeder cells, unless indicated otherwise, and where passage by single cell trypsinization every 5-10 days. Throughout the manuscript, indicated passage numbers of naïve-hiPSC/hESCs indicates number of passages counted after induction of the naïve state. The C1 secondary fibroblast cells (19), harbors Doxycycline (DOX) lentiviral vectors encoding Oct4, Sox2 and Klf4 reprogramming factors (45) and a constitutively active lentivirus encoding the reverse tetracycline transactivator (19), were grown in the presence of Dox in N2B27 media supplemented with different inhibitor combinations on gelatin coated plates, until initial PSC colonies were observed and subcloned. Mouse EpiSCs were derived and propagated as previously described (3,4). […]

Assay [2] deals with VASA, BLIMP1 and DAZL in naive-hESCs. Briefly: RT-PCR of early germ cell markers, naive-hESCs. The class given is cell-based, human. The conditions noted are these: 7 days. On the procedure:
(§4) Pluripotent cells were equally divided and plated on feeders in the indicated growth medium in which these cell lines are normally maintained, and 36 hours later the wells were supplemented with the indicated inhibitors or growth factors. After seven days, wells were fixed and stained to determine the relative percentage of colonies positive for pluripotency markers. SSEA1 staining was used for mouse stem cells. Colony formation was normalized to an internal control “Growth medium” without inhibitors (first left column). Normalized percentages lower than 5% are defined as “sensitivity” to the presence of the supplemented inhibitor. (B-C) Western blot analysis of total ERK1/2, phosphorylated ERK1/2 (pERK1/2) and phosphorylated Stat3 (pStat3). WIBR3 hESC and C1 hiPSC were grown in traditional bFGF/Activin containing media while naive-hESC/hiPSCs were grown in N2B27 PD/CH/FOR/LIF. ‘2×LIF’ indicates two fold increase in LIF concentration. (D) LIF/Stat3 is required for stabilization of naive-hESC/hiPSCs. […] After 20 days, colonies positive for pluripotency markers were counted and normalized to colonies from cells electroporated with empty vector (n=3 replicates for each condition). […] Pri-WIBR3.2 cell line was analyzed after passaging in conventional bFGF/serum-containing human ESC growth conditions. Numbers indicate average percentage of XIST positive nuclei counted. […]

Assay [3] deals with VASA, BLIMP1 and DAZL in hESCs. Briefly: RT-PCR of early germ cell markers, hESCs. The conditions noted are these: 7 days. The class given is cell-based, human. Here is the method:
as §4

Another assay concerns mEpiSCs. Nature of the assay: Signaling dependence of pluripotent cell lines, mEpiSCs. The class given is cell-based, mouse. The conditions noted are these: normal growth medium, inhibitor or factor added. Here is the method:
as §2, §3

Another assay deals with 129 EpiSC cells. Briefly: Dependence of pluripotency on signaling pathways, EpiSC. The class given is cell-based, mouse. The conditions noted are these: epiESM, Day 6. Here is the method: as §1
In another assay the test system is mESCs. Nature of the assay: Signaling dependence of pluripotent cell lines, mESCs. The class given is cell-based, mouse. The conditions noted are these: normal growth medium, inhibitor or factor added. On the procedure:
Pluripotent cells were equally divided and plated on feeders in the indicated growth medium in which these cell lines are normally maintained, and 36 hours later the wells were supplemented with the indicated inhibitors or growth factors. After seven days, wells were fixed and stained to determine the relative percentage of colonies positive for pluripotency markers. SSEA1 staining was used for mouse stem cells. Colony formation was normalized to an internal control “Growth medium” without inhibitors (first left column). Normalized percentages lower than 5% are defined as “sensitivity” to the presence of the supplemented inhibitor. (B-C) Western blot analysis of total ERK1/2, phosphorylated ERK1/2 (pERK1/2) and phosphorylated Stat3 (pStat3). WIBR3 hESC and C1 hiPSC were grown in traditional bFGF/Activin containing media while naive-hESC/hiPSCs were grown in N2B27 PD/CH/FOR/LIF. ‘2×LIF’ indicates two fold increase in LIF concentration. (D) LIF/Stat3 is required for stabilization of naive-hESC/hiPSCs. Naïve NOD mESCs, WIBR3.5 and WIBR3.1 naive-hESC, and C1 naïve-hiPSCs were electroporated with a pBRY-CAGGS-flox-DsRedT4-IP control plasmid, a plasmid encoding a dominant negative Stat3 Y705F mutant (Stat3-DN), or a plasmid Stat3-C constitutively active mutant (pBRY-Stat3-CA). Cells were passaged three times in the presence of puromycin. After 20 days, colonies positive for pluripotency markers were counted and normalized to colonies from cells electroporated with empty vector (n=3 replicates for each condition). (E) RT-PCR expression of early germ cell markers in the presence or absence of BMP4/7/8 cytokines for 7 days. (F) Representative FISH analysis for XIST RNA (red) and Cot1 nuclear RNA (green). Pri-WIBR3.2 cell line was analyzed after passaging in conventional bFGF/serum-containing human ESC growth conditions. Numbers indicate average percentage of XIST positive nuclei counted. […]

Consider `CC(C)(C)c1nc2c3cc[nH]c(=O)c3c3cc(F)ccc3c2[nH]1` [JAKi], for which the “effect on pluripotency of 129 mES cells” value in the assay on 129 mES cells is “differentiate”. The “effect on pluripotency of naive-hESCs/hiPSCs” value (from here on “effect … of naive-hESCs/hiPSCs”) in the assay with naive-hESCs/hiPSCs was “readily differentiated”. Also, in the assay with hESCs, the “effect on pluripotency of conventional hESCs” value (shortened to “effect … of conventional hESCs”) is recorded as “resistant”.

Consider `C=C[C@@]1(C)CC(=O)[C@]2(O)[C@@]3(C)[C@@H](O)CCC(C)(C)[C@@H]3[C@H](O)[C@H](OC(C)=O)[C@@]2(C)O1` [Forskolin], for which the “number of passages cells could be maintained” value in [1] is recorded as 15-20 passages.

With “BMP4: recombinant human BMP4 growth factor”, the “activation of germ cell markers VASA, BLIMP1 and DAZL in naive-hESCs” value in assay [2] was “no up-regulation”. Further, the “effect … of naive-hESCs/hiPSCs” value in the assay with naive-hESCs/hiPSCs was “but not of naive-hESCs/hiPSCs or mESCs”. In assay [3], the “activation of germ cell markers VASA, BLIMP1 and DAZL in hESCs” value is “readily activated”. For the same compound, in the assay on hESCs, the “effect … of conventional hESCs” value is on record as “resulted in the differentiation”. Also, the “effect on pluripotency of mEpiSCs” value in the assay on mEpiSCs is given as “resulted in the differentiation”.

Consider `NC(=O)c1ccc(-c2nc(-c3ccc4c(c3)OCO4)c(-c3ccccn3)[nH]2)cc1` [ALKi], for which the “effect … of naive-hESCs/hiPSCs” value in the assay on naive-hESCs/hiPSCs is on record as “maintained their pluripotent state”. Moreover, the “effect on pluripotency of EpiSC cells” value in the assay with 129 EpiSC cells is recorded as “differentiated”. Also, in the assay on hESCs, the “effect … of conventional hESCs” value is listed as “rapidly differentiated”. The “effect on pluripotency of mESCs” value in the assay with mESCs is “maintained their pluripotent state”. Moreover, the “effect on pluripotency of mEpiSCs” value in the assay with mEpiSCs is listed as “rapidly differentiated”.

The record behind these values is patent US20110088107A1, “COMPOSITIONS AND METHODS FOR DERIVING OR CULTURING PLURIPOTENT CELLS” (priority 2009, published 2011).
